# Columns and labels:
# [1] = target: histidine tagged recombinant human full-length Bruton Agammaglobulinemia Tyrosine Kinase (Btk) (Homo sapiens (Human), UniProt Q06187); experiment: Btk Kinase Inhibition Assay (fluorescence polarization, KinEASE FP Fluorescein Green); assay type: biochemical; details: 10 μM ATP, 250 μM substrate, 60 minutes room temperature; Ki from IC50 by Cheng-Prusoff
# Experimental: Kinase Binding Btk Kinase Inhibition Assay
# Fluorescence polarization-based kinase assays were performed in 384 well-plate format using histidine tagged recombinant human full-length Bruton Agammaglobulinemia Tyrosine Kinase (Btk) and a modified protocol of the KinEASE™ FP Fluorescein Green Assay supplied from Millipore. Kinase reaction were performed at room temperature for 60 minutes in presence of 250 μM substrate, 10 μM ATP and variable test article concentrations. The reaction was stopped with EDTA/kinease detection reagents and the polarization measured on a Tecan 500 instrument. From the dose-response curve obtained, the IC50 was calculated using Graph Pad Prisms® using a non linear fit curve. The Km for ATP on each enzyme was experimentally determined and the Ki values calculated using the Cheng-Prusoff equation (see: Cheng Y, Prusoff W H. (1973) Relationship between the inhibition constant (K1) and the concentration of inhibitor which causes 50 percent inhibition (I50) of an enzymatic reaction”. Biochem Pharmacol 22 (23): 3099-108).
# [2] = test system: Splenocytes; experiment: Splenic Cell Proliferation Assay (anti-IgM stimulated B cell proliferation, Cell Titer-Glo); assay type: cell-based; details: Splenocyte; CD1 mouse splenocytes, 2.5 ug/ml anti-IgM F(ab')2, 72 h; read-out: EC50 (nM), Inhibition of splenic cell proliferation
# Experimental: Splenic Cell Proliferation Assay
# Splenocytes were obtained from 6 week old male CD1 mice (Charles River Laboratories Inc.). Mouse spleens were manually disrupted in PBS and filtered using a 70 um cell strainer followed by ammonium chloride red blood cell lysis. Cells were washed, resuspended in Splenocyte Medium (HyClone RPMI supplemented with 10% heat-inactivated FBS, 0.5× non-essential amino acids, 10 mM HEPES, 50 uM beta mercaptoethanol) and incubated at 37° C., 5% CO2 for 2 h to remove adherent cells. Suspension cells were seeded in 96 well plates at 50,000 cells per well and incubated at 37° C., 5% CO2 for 1 h. Splenocytes were pre-treated in triplicate with 10,000 nM curves of Formula 1 compounds for 1 h, followed by stimulation of B cell proliferation with 2.5 ug/ml anti-IgM F(ab′)2 (Jackson ImmunoResearch) for 72 h. Cell proliferation was measured by Cell Titer-Glo Luminescent Assay (Promega). EC50 values (50% proliferation in the presence of compound as compared to vehicle treated controls) were calculated from dose response compound curves using GraphPad Prism Software.
# [3] = test system: Balb/c mice; experiment: Mouse Arthus; assay type: in vivo; details: delivered orally at 30 mg/kg, female Balb/c mice
# Experimental: Mouse Arthus studies were conducted as reported in Braselmann S, Taylor V, Zhao H, Wang S, Sylvain C, Baluom M, Qu K, Herlaar E, Lau A, Young C, Wong B R, Lovell S, Sun T, Park G, Argade A, Jurcevic S, Pine P, Singh R, Grossbard E B, Payan D G, Masuda E S: R406 an orally available spleen tyrosine kinase inhibitor blocks fc receptor signaling and reduces immune-complex mediated inflammation. J Pharmacol Exp Ther, 2006, 319:998-1008.
# In summary, female Balb/c mice (6-7 weeks on arrival) were habituated to the animal facility for at least 4 days. On the day of the experiment, animals were pre-treated (t=minus 1 h) with compound or vehicle alone by gavage (PO). At t=0, animals were injected intravenously (IV; 0.1 mL/mouse) with saline containing chicken ovalbumin and Evan's blue (10 mg/mL of each). Ten minutes later (t=10 min), animals were anesthesized with isoflurane, the dorsal surface was shaved and rabbit anti-chicken ovalbumin antibody was then injected intradermally at one site on the right side of the animal (25 μg in 30 μL). […]
# The animals were then returned to their home cage and skin punches (8 mm) were collected from each injection site four hours later. […] The amount of Evan's blue in the formamide solution was then assessed by spectrophotometry (630 nm) as a measure of serum extravasation into the dermis.
# Sequence of histidine tagged recombinant human full-length Bruton Agammaglobulinemia Tyrosine Kinase (Btk) (Q06187 whole entry): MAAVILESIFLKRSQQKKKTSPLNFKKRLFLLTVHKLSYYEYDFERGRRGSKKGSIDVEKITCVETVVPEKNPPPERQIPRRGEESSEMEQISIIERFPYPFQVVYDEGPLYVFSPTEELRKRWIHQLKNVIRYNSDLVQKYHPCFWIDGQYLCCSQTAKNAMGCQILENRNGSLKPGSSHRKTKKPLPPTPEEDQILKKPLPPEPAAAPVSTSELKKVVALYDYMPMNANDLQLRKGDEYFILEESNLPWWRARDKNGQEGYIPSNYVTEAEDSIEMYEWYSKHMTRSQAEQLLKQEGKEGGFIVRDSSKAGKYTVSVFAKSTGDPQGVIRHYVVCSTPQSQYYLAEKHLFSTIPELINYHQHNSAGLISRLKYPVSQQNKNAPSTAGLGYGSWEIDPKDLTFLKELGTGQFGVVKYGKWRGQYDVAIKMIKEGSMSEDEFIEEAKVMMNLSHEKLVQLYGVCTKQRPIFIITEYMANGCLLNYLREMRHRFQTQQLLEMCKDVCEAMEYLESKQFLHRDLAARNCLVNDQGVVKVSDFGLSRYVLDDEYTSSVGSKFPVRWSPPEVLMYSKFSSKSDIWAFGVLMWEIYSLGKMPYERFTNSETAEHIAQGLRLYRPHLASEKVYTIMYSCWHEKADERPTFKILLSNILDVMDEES
Ki [1] [nM],SMILES,EC50 [2] [nM],efficacy in mouse Arthus (Evan's blue serum extravasation into the dermis) [3]
< 100,Cc1ncc(COc2cc(F)cc(Oc3ccc(-n4nc(C5CCOCC5)c5ncnc(N)c54)cc3)c2)cn1 [Compound 15],–,–
< 100,Cc1ccc(COc2cc(F)cc(Oc3ccc(-n4nc(C5CCOCC5)c5ncnc(N)c54)cc3)c2)cn1 [Compound 14],< 100,–
< 100,CC(C)c1nn(-c2ccc(Oc3cc(F)cc(OCc4ccccc4)c3)cc2)c2c(N)ncnc12 [Compound 12],< 100,–
< 100,Cc1ccc(COc2cc(F)cc(Oc3ccc(-n4nc(C(C)C)c5ncnc(N)c54)cc3)c2)cn1 [Compound 11],< 100,–
< 100,Nc1ncnc2c(C3CCOCC3)nn(-c3ccc(Oc4cc(F)cc(OCc5ccccc5)c4)cc3)c12 [Compound 13],< 100,–

# Further lines, the compound ahead of its results:
SMILES,Ki [1] [nM],EC50 [2] [nM],efficacy in mouse Arthus (Evan's blue serum extravasation into the dermis) [3]
Nc1ncnc2c(C3CCCC3)nn(-c3ccc(Oc4cccc(OCc5cncs5)c4)cc3)c12 [Compound 1],< 100,< 100,–
Cc1ccc(COc2cc(F)cc(Oc3ccc(-n4nc(C5CCCC5)c5ncnc(N)c54)cc3)c2)cn1 [Compound 6],< 100,< 100,–
Cc1ncc(COc2cc(F)cc(Oc3ccc(-n4nc(C5CCOCC5)c5ncnc(N)c54)cc3)c2)o1 [Compound 5],< 100,< 100,–
Cc1ncc(COc2cc(F)cc(Oc3ccc(-n4nc(C5CCOCC5)c5ncnc(N)c54)cc3)c2)s1 [Compound 3],< 100,< 100,–
Cc1ncc(COc2cc(F)cc(Oc3ccc(-n4nc(C5CCCC5)c5ncnc(N)c54)cc3)c2)cn1 [Compound 8],< 100,< 100,–
Cc1ncc(COc2cccc(Oc3ccc(-n4nc(C5CCCC5)c5ncnc(N)c54)cc3)c2)s1 [Compound 2],< 100,< 100,–
Cc1ncc(COc2cc(F)cc(Oc3ccc(-n4nc(C(C)C)c5ncnc(N)c54)cc3)c2)cn1 [Compound 10],< 100,< 100,demonstrated efficacy
Cn1cncc1COc1cc(F)cc(Oc2ccc(-n3nc(C4CCOCC4)c4ncnc(N)c43)cc2)c1 [Compound 4],< 100,< 100,–
Cc1ncc(COc2cc(F)cc(Oc3ccc(-n4nc(C(C)C)c5ncnc(N)c54)cc3)c2)s1 [Compound 9],< 100,< 100,demonstrated efficacy
Cc1ncc(COc2cc(F)cc(Oc3ccc(-n4nc(C5CCCC5)c5ncnc(N)c54)cc3)c2)s1 [Compound 7],< 100,< 100,–

# From patent US9795608B2, “Protein kinase inhibitors” (PHARMASCIENCE, INC., priority 2012, dated 2017)
